Experimental data as given in patent US20150087037A1, “FERMENTATION PROCESS” (LanzaTech New Zealand Limited, priority 2013, published 2015).

Key:
Format in all cases: cell-based, Clostridium autoethanogenum
[1] = tested on: C. autoethanogenum DSM23693; test: Single reactor fermentation optimised for 2,3-BDO production, single 2-HIBA addition (Example 1)
Protocol: (§1) Fermentations with C. autoethanogenum DSM23693 were carried out in 1.5 L bioreactors at 37° C. The media was prepared according to Table 1. To achieve anaerobicity the reactor vessel was sparged with nitrogen. Prior to inoculation, the gas was switched to either steel mill gas containing H2 (3%), N2 (30%), CO (47%) and CO2 (20%) or pure gases (50% CO, 18-40% CO2, with the balance N2). The gas flow was initially set at 67 ml/min/L, increasing to 200 ml/min during mid-exponential phase, while the agitation was increased from 200 rpm to 800. Na2S was dosed into the bioreactor at 0.25 ml/hr. Once the OD600 reached 1.5, the bioreactor was switched to a continuous mode at a dilution rate of 2.0-1.6 d-l and a bacterial dilution rate of 0.9-0.6 d-l. During continuous mode gas and agitation were adjusted to 900-950 rpm and 800-900 ml/min. Na2S was increased to 1.0 ml/hr.
(§2) Liquid culture samples were taken at differing intervals over the duration of the fermentation. These samples were used to establish the optical density at 600 nm (spectrophotometer) and the level of substrates and products (high performance liquid chromatography—HPLC). HPLC was routinely used to quantify the level of acetate, ethanol and 2,3-butanediol. The input and output gas compositions were analysed using a gas chromatographer (GC), allowing measurement of CO and H2 consumption and CO2 production by the culture.
The impacts of 2-HIBA were investigated on a single reactor system which had been optimised for 2,3-BDO production. This was done to ascertain the impact that this chemical would have on a high performance system and obtain information on suitable concentrations that would not interfere with overall fermentation stability.
The 2,3-BDO concentration increased from 6 g/L to 12 g/L dropping the ratio from 4:1 to as low as 1.4:1. […] The concentration of 2-HIBA was monitored in the reactor liquid outflow. […] The 2-HIBA washes out of the fermenter according to the bacterial dilution rate.

[2] = tested on: C. autoethanogenum DSM23693; test: Linked two reactor (R1, R2) fermentation system, continuous 2-HIBA addition (Examples 2 and 3)
Protocol: as §1, §2
A two reactor system was used to examine the impact of continuous 2-HIBA addition on the metabolite profile. Initially 0.5 g/L/day (4.8 mM/day) 2-HIBA was added to the R2 only, this increased the production of 2,3-BDO but the ratio only dropped to as low as 1.9:1. Continuous addition of 2-HIBA at 0.5 g/L/day (4.8 mM/day) was then added to the R1. […] This would be achieved by improving the concentration in both the R1 and the R2 as the 2-HIBA is transferred from the R1 to the R2 (through liquid flow) along with improved 2,3-BDO concentrations. The 2,3-BDO concentration increased from 5.7 g/L to 14 g/L in the R1 and from 16 g/L to 21 g/L in the R2 (see FIGS. 3 and 4). The ratio of ethanol:2,3-BDO dropped to 1:1 in the R1 and 1.3:1 in the R2 and remained stable for a period of eight days. The improvement of the ratio was achieved as a result of increased 2,3-BDO concentration and a drop in ethanol production.
Over time the ethanol concentration after the 2-HIBA addition improved whilst the concentration of 2,3-BDO remained stable, this had the effect of improving the total alcohol productivity of the system.
The results achieved in Example 2 were repeated with the aim to improve the overall titre of 2,3-BDO. In this experiment the 2-HIBA concentration was increased to 1 g/L/day (9.6 mM/day).

[3] = tested on: LZ1561; test: Differential gene expression analysis before and after 2-HIBA addition (Example 6)
Description: In order to understand the impact of 2-HIBA on the metabolism of LZ1561 samples were taken for gene expression analysis. A reactor was started up as a batch and after 1 day was turned continuous at a D=1.4 day^−1. Gas flow and agitation were adjusted in order to minimise acetate and maximise ethanol and 2,3-BDO production. By day 7 the Ethanol:2,3-BDO ratio was less than 5:1 and the gas had reached target CO uptake of between 5-6 mol/L/day. On day 9.6 a sample was taken for gene expression analysis representing stable data without 2-HIBA. […] The results for this analysis indicated very clearly that 2-HIBA interacts with the Branch Chain Amino Acid biosynthesis pathway (BCAA). From the results a mode of action of 2-HIBA was proposed and this is illustrated and described in FIG. 11.

[4] = R1, average across eight days, 0.5 g/L/day 2-HIBA
[5] = R1, gas data average across eight days, 0.5 g/L/day 2-HIBA
[6] = R2, average across eight days, 0.5 g/L/day 2-HIBA
[7] = R2, gas data average across eight days, 0.5 g/L/day 2-HIBA
[8] = 0 mM vs 4.8 mM 2-HIBA addition, down-regulated
[9] = 0 mM vs 4.8 mM 2-HIBA addition, up-regulated

`CC(C)(O)C(=O)O` [2-HIBA, 2-hydroxyisobutyric acid] was tested, and the “impact on gas uptake” value ([1]; 0.5 g/L (4.8 mM) 2-HIBA) was “not to have a detrimental impact on gas uptake”, the “metabolite profile of the fermentation” value ([1]; 0.5 g/L (4.8 mM) 2-HIBA, FIG. 1) was “increasing the production of 2,3-butanediol whilst decreasing the production of ethanol, acetate and biomass” and the “2,3-BDO concentration” value ([1]; after 0.5 g/L (4.8 mM) 2-HIBA added on day 7.95, increased from 6 g/L) was 12 g/L. For the same compound, the “overall washout rate of 2-HIBA” value ([1]; matched the bacterial dilution rate) was 0.7 day⁻¹, the “initial washout rate of 2-HIBA” value ([1]; similar to the dilution rate) was roughly 1.8 day⁻¹ and the “impact on CO and hydrogen uptake” value ([2]; 0.5 g/L/day 2-HIBA, FIGS. 5 and 6) was “did not negatively impact”. For the same compound, the “2,3-BDO concentration in R1” value ([2]; 0.5 g/L/day (4.8 mM/day) 2-HIBA added to R1, increased from 5.7 g/L) was 14 g/L, the “impact on gas uptake” value ([2]; 1 g/L/day (9.6 mM/day) 2-HIBA) was “not negatively impacted” and the “overall 2,3-BDO concentration” value ([2]; 1 g/L/day (9.6 mM/day) 2-HIBA, highest reached, FIG. 7) was 23.9 g/L. The Acetate ([2]; R1, average across eight days of stable operation, 0.5 g/L/day 2-HIBA) was 6.5 g/L, the “2,3 BDO” value [2, 4] was 13.7 g/L and the “2,3 BDO productivity” value [2, 4] was 27 g/L/day. The Biomass [2, 4] was 9.2 g/L, the Ethanol [2, 4] was 14.4 g/L and the Lactate [2, 4] was 0.0 g/L. For the same compound, the CO2 production [2, 5] was 5630 mmol/L, the CO uptake [2, 5] was -8830 mmol/L and the CO utilisation [2, 5] was 53%. For the same compound, the H2 production [2, 5] was 423 mmol/L, the “2,3 BDO” value [2, 6] was 21.3 g/L and the “2,3 BDO productivity” value [2, 6] was 16 g/L/day. For the same compound, the Acetate [2, 6] was 7.8 g/L, the Biomass [2, 6] was 15.6 g/L and the Ethanol [2, 6] was 28.3 g/L. For the same compound, the Lactate [2, 6] was 0.0 g/L, the CO2 production [2, 7] was 4932 mmol/L and the CO uptake [2, 7] was -7930 mmol/L. The CO utilisation [2, 7] was 63%, the H2 production [2, 7] was 413 mmol/L and the “log2 fold_change, or1907 Indole-3-glycerol phosphate synthase CDS” value [3, 8] was −3.042. The “log2 fold_change, or2161 Alcohol dehydrogenase CDS” value [3, 8] was −3.476, the “log2 fold_change, or2739 Glutamate synthase (NADPH) CDS” value [3, 8] was −3.498 and the “log2 fold_change, or2997 Glycerol dehydrogenase CDS” value [3, 8] was −4.924. The “log2 fold_change, or3075 Glucarate dehydratase CDS” value [3, 8] was −4.084, the “log2 fold_change, or3076 hypothetical protein CDS” value [3, 8] was −3.469 and the “log2 fold_change, or3079 Methylglyoxal reductase (NADPH-dependent) CDS” value [3, 8] was −4.02. For the same compound, the “log2 fold_change, or3080 transcriptional regulator, CdaR CDS” value [3, 8] was −3.947, the “log2 fold_change, or1190 2-isopropylmalate synthase CDS” value [3, 9] was 3.63 and the “log2 fold_change, or1191 3-isopropylmalate dehydratase large subunit CDS” value [3, 9] was 3.55. The “log2 fold_change, or1193 3-isopropylmalate dehydrogenase CDS” value [3, 9] was 3.289, the “log2 fold_change, or2387 Ketol-acid reductoisomerase CDS” value [3, 9] was 3.202 and the “log2 fold_change, or2388 Dihydroxy-acid dehydratase CDS” value [3, 9] was 2.901. For the same compound, the “log2 fold_change, or2389 acetolactate synthase, large subunit, biosynthetic type CDS” value [3, 9] was 3.255, the “log2 fold_change, or2390 acetolactate synthase, small subunit CDS” value [3, 9] was 3.237 and the “log2 fold_change, or2461 General substrate transporter CDS” value [3, 9] was 2.867. The response in metabolites ([3]; 0.5 g/L (4.8 mM) 2-HIBA added on day 10.78) was “decreasing acetate, ethanol and biomass with increasing 2,3-BDO”, the Biomass ([3]; Day 12.8-14.0, stable 0.5 g/L HIBA addition, before 4.7) was 3.45 g/L and the CO uptake ([3]; Day 12.8-14.0, stable 0.5 g/L HIBA addition, before 5.7) was 5.1 mol/L/day.
